What was measured:
duck salad = experiment: Test B flood test duck salad; assay type: in vivo, Heteranthera limosa; conditions: Pre-emergence
Procedure, shortened: (§1)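 Flood test on plants grown to the 2-leaf stage; treated plants kept in greenhouse twelve to sixteen days, then visually rated against controls on a 0 (no effect) to 10 (complete control) scale.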

blackgrass = experiment: Test B pre/postemergence blackgrass; assay type: in vivo, Alopecurus myosuroides
Procedure, shortened: (§2)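 Herbicidal effect was estimated by eye on a ten-point control scale after plants spent twelve to sixteen days in a greenhouse following soil or foliar treatment. Foliar sprays targeted plants at one to four leaves; all doses were formulated in a non-phytotoxic solvent with surfactant.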

bedstraw = experiment: Test B pre/postemergence bedstraw; assay type: in vivo, Galium aparine
Procedure, shortened: as §2

purple nutsedge = experiment: Test B pre/postemergence purple nutsedge; assay type: in vivo, Cyperus rotundus
Procedure, shortened: as §2

wild oat = experiment: Test B pre/postemergence wild oat; assay type: in vivo, Avena fatua
Procedure, shortened: as §2

bamyardgrass = experiment: Test B flood test barnyardgrass; assay type: in vivo, Echinochloa crus-galli; conditions: Pre-emergence
Procedure, shortened: as §1

cocklebur = experiment: Test B pre/postemergence cocklebur; assay type: in vivo, Xanthium strumarium
Procedure, shortened: as §2

velvetleaf = experiment: Test B pre/postemergence velvetleaf; assay type: in vivo, Abutilon theophrasti
Procedure, shortened: as §2

pigweed = experiment: Test B pre/postemergence pigweed; assay type: in vivo, Amaranthus retroflexus
Procedure, shortened: as §2

surinam grass = experiment: Test B pre/postemergence surinam grass; assay type: in vivo, Brachiaria decumbens
Procedure, shortened: as §2

corn = experiment: Test B pre/postemergence corn; assay type: in vivo, Zea mays
Procedure, shortened: as §2

rice = experiment: Test B flood test rice; assay type: in vivo, Oryza sativa; conditions: Pre-emergence
Procedure, shortened: as §1

rape = experiment: Test B pre/postemergence rape; assay type: in vivo, Brassica napus
Procedure, shortened: as §2

smallflower flatsedge = experiment: Test B flood test smallflower flatsedge; assay type: in vivo, Cyperus difformis; conditions: Pre-emergence
Procedure, shortened: as §1

wheat = experiment: Test B pre/postemergence wheat; assay type: in vivo, Triticum aestivum
Procedure, shortened: as §2

morningglory = experiment: Test B pre/postemergence morningglory; assay type: in vivo, Ipomoea hederacea
Procedure, shortened: as §2

[1] = Rate 1000 g/ha, scale 0 to 10 (0 no effect, 10 complete control)
[2] = Rate 125 g/ha, flood test species, scale 0 to 10 where 0 is no effect and 10 is complete control
[3] = Rate 250 g/ha, flood-test species, scale 0 to 10, 0 is no effect, 10 is complete control
[4] = Rate 500 g/ha, flood test species, scale 0 to 10 (0 no effect, 10 complete control)
[5] = Preemergence, Rate 62 g/ha, scale of 0 to 10 where 0 is no effect and 10 is complete control
[6] = Preemergence, Rate 250 g/ha, scale of 0 to 10 where 0 is no effect and 10 is complete control
[7] = Preemergence, Rate 500 g/ha, scale of 0 to 10 where 0 is no effect and 10 is complete control
[8] = Rate 62 g/ha, Postemergence, scale 0 to 10 (0 no effect, 10 complete control)
[9] = Rate 125 g/ha, Postemergence, scale of 0 to 10 where 0 is no effect and 10 is complete control
[10] = Rate 250 g/ha, Postemergence, scale of 0 to 10 where 0 is no effect and 10 is complete control
[11] = Rate 500 g/ha, Postemergence, scale 0 to 10, 0 no effect, 10 complete control

CCN(C(=O)n1oc(=O)n(C(C)C)c1=O)C1CCCCC1 [Compound 309]
2: Blackgrass plant response rating (blackgrass; [6]) | Blackgrass plant response rating (blackgrass; [11]) | Wild oats plant response rating (wild oat; [7]) | Velvetleaf plant response rating (velvetleaf; [7]) | Redroot pigweed plant response rating (pigweed; [7]) | B. signalgrass plant response rating (surinam grass; [7]) | Corn plant response rating (corn; [6]) | Plant response rating, Morningglory (morningglory; [10])
0: Ducksalad plant response rating (duck salad; [1]) | Ducksalad plant response rating (duck salad; [2]) | Ducksalad plant response rating (duck salad; [3]) | Ducksalad plant response rating (duck salad; [4]) | Blackgrass plant response rating (blackgrass; [5]) | Blackgrass plant response rating (0 to 10 scale) (blackgrass; Preemergence, Rate 125 g/ha) | Blackgrass plant response rating (blackgrass; [8]) | Blackgrass plant response rating (blackgrass; [9]) | Plant response rating, Blackgrass (blackgrass; [10]) | Bedstraw plant response rating (bedstraw; [5]) | Bedstraw plant response rating (0 to 10 scale) (bedstraw; Preemergence, Rate 125 g/ha) | Bedstraw plant response rating (bedstraw; [6]) | Bedstraw plant response rating (bedstraw; [7]) | Bedstraw plant response rating (bedstraw; [8]) | Bedstraw plant response rating (bedstraw; [9]) | Plant response rating, Bedstraw (bedstraw; [10]) | Bedstraw plant response rating (bedstraw; [11]) | Nutsedge plant response rating (purple nutsedge; [5]) | Nutsedge plant response rating (0 to 10 scale) (purple nutsedge; Preemergence, Rate 125 g/ha) | Nutsedge plant response rating (purple nutsedge; [6]) | Nutsedge plant response rating (purple nutsedge; [7]) | Nutsedge plant response rating (purple nutsedge; [8]) | Nutsedge plant response rating (purple nutsedge; [9]) | Plant response rating, Nutsedge (purple nutsedge; [10]) | Wild oats plant response rating (wild oat; [5]) | Wild oats plant response rating (0 to 10 scale) (wild oat; Preemergence, Rate 125 g/ha) | Wild oats plant response rating (wild oat; [6]) | Wild oats plant response rating (wild oat; [8]) | Wild oats plant response rating (wild oat; [9]) | Plant response rating, Wild oats (wild oat; [10]) | Barnyardgrass plant response rating (bamyardgrass; [1]) | Barnyardgrass plant response rating (bamyardgrass; [2]) | Barnyardgrass plant response rating (bamyardgrass; [3]) | Barnyardgrass plant response rating (bamyardgrass; [4]) | Cocklebur plant response rating (cocklebur; [5]) | Cocklebur plant response rating (0 to 10 scale) (cocklebur; Preemergence, Rate 125 g/ha) | Cocklebur plant response rating (cocklebur; [6]) | Cocklebur plant response rating (cocklebur; [7]) | Cocklebur plant response rating (cocklebur; [8]) | Cocklebur plant response rating (cocklebur; [9]) | Plant response rating, Cocklebur (cocklebur; [10]) | Cocklebur plant response rating (cocklebur; [11]) | Velvetleaf plant response rating (velvetleaf; [5]) | Velvetleaf plant response rating (0 to 10 scale) (velvetleaf; Preemergence, Rate 125 g/ha) | Velvetleaf plant response rating (velvetleaf; [6]) | Velvetleaf plant response rating (velvetleaf; [8]) | Velvetleaf plant response rating (velvetleaf; [9]) | Plant response rating, Velvetleaf (velvetleaf; [10]) | Redroot pigweed plant response rating (pigweed; [5]) | Redroot pigweed plant response rating (0 to 10 scale) (pigweed; Preemergence, Rate 125 g/ha) | Redroot pigweed plant response rating (pigweed; [6]) | Redroot pigweed plant response rating (pigweed; [8]) | Redroot pigweed plant response rating (pigweed; [9]) | Plant response rating, Redroot pigweed (pigweed; [10]) | B. signalgrass plant response rating (surinam grass; [5]) | B. signalgrass plant response rating (0 to 10 scale, 0 is no effect, 10 is complete control) (surinam grass; Preemergence, Rate 125 g/ha) | B. signalgrass plant response rating (surinam grass; [6]) | B. signalgrass plant response rating (surinam grass; [8]) | B. signalgrass plant response rating (surinam grass; [9]) | Plant response rating, B. signalgrass (surinam grass; [10]) | B. signalgrass plant response rating (surinam grass; [11]) | Corn plant response rating (corn; [5]) | Corn plant response rating (0 to 10 scale) (corn; Preemergence, Rate 125 g/ha) | Corn plant response rating (corn; [8]) | Corn plant response rating (corn; [9]) | Plant response rating, Corn (corn; [10]) | Corn plant response rating (corn; [11]) | Rice plant response rating (rice; [1]) | Rice plant response rating (rice; [2]) | Rice plant response rating (rice; [3]) | Rice plant response rating (rice; [4]) | Rape plant response rating (rape; [5]) | Rape plant response rating (0 to 10 scale) (rape; Preemergence, Rate 125 g/ha) | Rape plant response rating (rape; [6]) | Rape plant response rating (rape; [7]) | Rape plant response rating (rape; [8]) | Rape plant response rating (rape; [9]) | Plant response rating, Rape (rape; [10]) | S. Flatsedge plant response rating (smallflower flatsedge; [1]) | S. Flatsedge plant response rating (smallflower flatsedge; [2]) | S. Flatsedge plant response rating (smallflower flatsedge; [3]) | S. Flatsedge plant response rating (smallflower flatsedge; [4]) | Wheat plant response rating (wheat; [5]) | Wheat plant response rating (0 to 10 scale) (wheat; Preemergence, Rate 125 g/ha) | Wheat plant response rating (wheat; [6]) | Wheat plant response rating (wheat; [7]) | Wheat plant response rating (wheat; [8]) | Wheat plant response rating (wheat; [9]) | Plant response rating, Wheat (wheat; [10]) | Morningglory plant response rating (morningglory; [5]) | Morningglory plant response rating (0 to 10 scale) (morningglory; Preemergence, Rate 125 g/ha) | Morningglory plant response rating (morningglory; [6]) | Morningglory plant response rating (morningglory; [7])
1: Morningglory plant response rating (morningglory; [8]) | Morningglory plant response rating (morningglory; [9])
4: Corn plant response rating (corn; [7])
6: Blackgrass plant response rating (blackgrass; [7])
